Experimental findings from PubChem BioAssay (NCI) are described below.

Holding throughout (test): NCI anticancer screen, dose series, 48 h
Test [1] relates to NCI-H23 lung.
Test [2] has as its system A549 NSCLC.
Test [3] has as its system COLO 205 colon.
Test [4] concerns OVCAR-4 ovarian.
The subject of test [5] is SK-OV-3 ovarian.
Test [6] concerns K-562 leukemia.
Test [7] concerns KM12 colon.
Test [8] has as its system SF-539 CNS.
The test system of test [9] is PC-3 prostate.
In test [10] the test system is SF-295 CNS.

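These data come from cells grown in 96-well plates and exposed to compound for 48 hours at five concentrations. GI50 = concentration required for 50% inhibition of growth. TGI: concentration producing complete growth inhibition.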 A value given as a limit tells only on which side of the number the result lay.

With `O=C(Nc1ccc(OS(=O)(=O)c2ccccc2)cc1)C12CC3CC(CC(C3)C1)C2`, the GI50 in test [1] was 6.68 µM; in [2] it was 6.9 µM; in test [3] it was 0.873 µM; in test [4], 8.38 µM; in test [5] it was more than 100 µM; in test [6], 0.576 µM. Besides, the GI50 in test [7] was 2.1 µM; in test [8] it was 0.965 µM; in test [9], 2.9 µM; in [10], 8.27 µM. Also, the TGI in test [1], in test [2], in test [3], in test [4], in [5] and in test [6] was more than 100 µM each time. The TGI in [7], in test [8], in test [9] and in test [10] was more than 100 µM each time.

For `Cc1ccc(C(SCC(N)C(=O)O)(c2ccccc2)c2ccc(C)cc2)cc1` (stereo not drawn), the GI50 was 0.423 µM in test [1]; 0.466 µM in test [2]; 0.241 µM in test [3]; 13.4 µM in test [4]; 0.0811 µM in [5]; 0.266 µM in test [6]. In addition, the GI50 in test [7] is 0.219 µM; in test [8], 0.129 µM; in test [9] it was 0.314 µM; in test [10], 0.167 µM. The TGI in test [1] is 23.7 µM; in test [2], 45.6 µM; in test [3] it was 0.732 µM; in [4] it was 72.7 µM; in test [5], 19.6 µM; in test [6] it was more than 35.2 µM. In addition, the TGI in test [7] was 12.8 µM; in test [8], 2.47 µM; in [9] it was 30.4 µM; in test [10], 2.15 µM.

`C[As](C)SC1OC(CO)C(O)C1O` (stereo not drawn): the GI50 was 0.61 µM in test [1]; 2.25 µM in [2]; 0.505 µM in [3]; 1.69 µM in [4]; 6.42 µM in test [5]; 0.131 µM in test [6]. The GI50 in test [7] is 2.4 µM; in test [8] it was 0.222 µM; in test [9], 0.656 µM; in [10] it was 2.28 µM. Also, the TGI in [1] is 3.89 µM; in test [2], more than 61 µM; in test [3], 10.8 µM; in [4], 16.3 µM; in [5] it was 22.4 µM; in test [6], 2.03 µM. Besides, the TGI is 13.6 µM in test [7], 0.749 µM in test [8], 9.79 µM in [9] and 7.16 µM in [10].

As to `C=C(F)C(=O)N1CCN(c2nc(OC[C@@H]3CCCN3C)nc3c2CCN(c2cccc4cccc(Cl)c24)C3)C[C@@H]1CC#N`, the GI50 in [1] is less than 0.01 µM; in test [2], 0.673 µM; in test [3], 0.578 µM; in test [4], 0.994 µM; in test [5], 2.17 µM; in [6], 0.421 µM. Besides, the GI50 in test [7] was 1.2 µM; in [8], 0.936 µM; in [9], 0.855 µM; in test [10], 1.48 µM. Besides, the TGI is 1.58 µM in test [1]; 2.57 µM in test [2]; 1.98 µM in test [3]; 3.3 µM in test [4]; 4.94 µM in test [5]; 1.84 µM in test [6]. Moreover, the TGI in [7] was 2.56 µM; in test [8] it was 2.25 µM; in [9] it was 2.44 µM; in [10], 3.13 µM.

Take `Cc1ccc(Cl)cc1Nc1nc(C(F)(F)F)ccc1C(=O)N1CCN(c2ccc(F)cc2)CC1`: the GI50 in test [1] is 10.2 µM; in test [2], 15.3 µM; in [3], 15.8 µM; in test [4] it was 10.8 µM; in test [5], 15.6 µM; in test [6] it was 9.53 µM. The GI50 in test [7] was 11.3 µM; in test [8] it was 14.8 µM; in test [9] it was 10.2 µM; in test [10] it was 15.6 µM. Besides, the TGI in [1] came to 24.2 µM; in test [2], 37.1 µM; in [3] it was 30.2 µM; in [4] it was 27.9 µM; in [5], 36.1 µM; in test [6], 30 µM. For the same compound, the TGI in test [7] came to 23.4 µM; in test [8], 30.2 µM; in [9], 33.3 µM; in test [10], 32.5 µM.

`CCCCc1c(OC)cc(O)c2c1C(=O)c1[nH]c(C(=O)O)c(O)c(=O)c1C2=O`: the TGI is 20.3 µM in test [1]; more than 100 µM in test [2]; 64.6 µM in test [3]; more than 100 µM in test [4]; 18.6 µM in test [5]; more than 100 µM in test [6]. In addition, the TGI in test [7] was more than 100 µM; in test [8], 2.54 µM; in [9], more than 100 µM; in test [10], more than 100 µM.

`COc1ccc(C(=O)c2cc(OC)c(C)c(OC)c2)cc1OC(=O)CCl`: the GI50 in test [1] is 0.558 µM; in [2], 1.11 µM; in [3], 7.78 µM; in test [4], 1.22 µM; in [5], 0.76 µM; in test [6], 0.0538 µM. The GI50 in test [7] is 0.13 µM; in test [8], 0.172 µM; in test [9] it was 0.275 µM; in test [10], 0.764 µM. Moreover, the TGI is more than 100 µM in test [1]; more than 100 µM in test [2]; 69.4 µM in [3]; more than 100 µM in [4]; more than 100 µM in test [5]; more than 100 µM in [6]. The TGI is more than 44.2 µM in test [7], 0.58 µM in [8], more than 100 µM in test [9] and 30.7 µM in test [10].

For the compound `COc1cc(C(=O)c2cc(C)c3[nH]c4ccc(Cl)cc4c3c2C)cc(OC)c1OC`, the GI50 in test [1] was 0.0444 µM; in [2], 0.134 µM; in test [3] it was 0.517 µM; in test [4], 1.16 µM; in test [5] it was 0.666 µM; in [6] it was 0.035 µM. Further, the GI50 was 0.0531 µM in [7], 0.0284 µM in test [8], 0.146 µM in test [9] and 0.0284 µM in [10]. In addition, the TGI in test [1] is 7.43 µM; in test [2] it was 28.7 µM; in test [3], 2.36 µM; in test [4], 27.2 µM; in test [5] it was 34.7 µM; in test [6], more than 100 µM. In addition, the TGI in [7] turned out to be 2.4 µM; in test [8], 0.461 µM; in test [9] it was 13.7 µM; in [10], 0.303 µM.

As to `CC1OC2CC(=O)OC2C2=C1C(=O)c1c(O)cccc1C2=O` (stereo not drawn), the GI50 in test [1] was 0.142 µM; in [2], 0.831 µM; in test [3] it was 0.0177 µM; in test [4], 0.113 µM; in test [5] it was 1.34 µM; in [6], 0.0298 µM. Also, the GI50 is 0.176 µM in test [7], 0.12 µM in test [8], 0.242 µM in test [9] and 0.956 µM in test [10]. For the same compound, the TGI in test [1] was 0.426 µM; in test [2] it was 2.68 µM; in test [3], 0.0405 µM; in [4], 0.253 µM; in [5] it was 2.67 µM; in test [6], more than 100 µM. In addition, the TGI was 0.392 µM in [7], 0.284 µM in [8], 0.965 µM in [9] and 2.62 µM in test [10].

For the compound `O=C(CCCn1ccnc1[N+](=O)[O-])NCCn1cncc1[N+](=O)[O-]`, the TGI in test [1], in [2], in test [3], in [4], in test [5] and in test [6] was more than 100 µM each time. Besides, the TGI in test [7], in [8], in [9] and in [10] was more than 100 µM in each case.

Take `COc1ncnc(C2CC2)c1-c1ncc2cnn(Cc3ccc(-c4nc(C(F)(F)F)cn4C(C)C)cc3)c2n1`: the GI50 was 21.8 µM in test [1]; 19.3 µM in test [2]; 23.5 µM in test [3]; 14.2 µM in test [4]; 36.8 µM in test [5]; 13.9 µM in test [6]. Also, the GI50 is 23.4 µM in [7], 16.1 µM in test [8], 17.5 µM in test [9] and 18.4 µM in test [10]. Moreover, the TGI in [1] is 78 µM; in test [2] it was more than 100 µM; in test [3] it was 89.4 µM; in test [4] it was 75.6 µM; in test [5], more than 100 µM; in test [6], more than 100 µM. Further, the TGI was 81.8 µM in test [7], 39 µM in [8], more than 100 µM in test [9] and 65.1 µM in test [10].

`Oc1ccc(Cl)cc1Cc1cc(Cl)cc(Cl)c1O`: the GI50 in [1] is 3.32 µM; in test [2], 5.48 µM; in test [3], 19.5 µM; in test [4], 3.48 µM; in test [5] it was 2.93 µM; in test [6] it was 4.52 µM. In addition, the GI50 in test [7] was 4.34 µM; in test [8], 2.33 µM; in test [9] it was 3.59 µM; in [10], 6.66 µM. Besides, the TGI turned out to be 10.6 µM in test [1]; 47.6 µM in test [2]; 36.6 µM in [3]; 23.3 µM in [4]; 13.1 µM in test [5]; 28.4 µM in test [6]. Also, the TGI was 19.8 µM in test [7], 6.65 µM in [8], 15.5 µM in [9] and 57.5 µM in test [10].

`CNCCNc1c2c(c(NCCNC)c3c(CN(C)C)c[nH]c13)C(=O)c1ccccc1C2=O`: the GI50 in test [1] is 2.22 µM; in test [2], 3.42 µM; in test [4] it was 4.79 µM; in [5], 17.1 µM; in test [6] it was 1.81 µM; in test [7] it was 2.8 µM. Moreover, the GI50 in [8] was 4.46 µM; in [9] it was 0.969 µM; in test [10] it was 1.59 µM. Moreover, the TGI was 11.2 µM in test [2]; more than 34.5 µM in test [3]; 17.5 µM in [4]; 50.8 µM in test [5]; more than 100 µM in test [6]; 9.5 µM in [7]. Further, the TGI in test [8] was determined as 17.1 µM; in [9], 5.64 µM; in test [10], 9.16 µM.

Consider `COc1ccc2c(c1)C(C)Cc1c(Cl)ncnc1N2C` (stereo not drawn), for which the GI50 is 0.449 µM in [1]; 0.432 µM in [2]; 0.261 µM in test [3]; 0.395 µM in [4]; 0.504 µM in [5]; 2.08 µM in test [6]. Also, the GI50 was 0.298 µM in test [7], 0.471 µM in [8], 0.424 µM in test [9] and 0.375 µM in test [10]. Also, the TGI in [1] was 11.5 µM; in test [2], more than 100 µM; in test [3] it was 0.777 µM; in [4], more than 100 µM; in [5], 17.3 µM; in test [6], more than 100 µM. Also, the TGI was 1.37 µM in test [7], 18.8 µM in test [8], more than 59.1 µM in test [9] and more than 48.1 µM in test [10].

As to `Cn1c(=O)c2c(nc(Nc3cc(=O)[nH]c(=O)[nH]3)n2Cc2ccccc2)n(C)c1=O`, the GI50 in [1] is more than 100 µM; in [2], more than 100 µM; in [3], more than 100 µM; in test [4], 46.9 µM; in [5] it was more than 100 µM; in test [6], 82.5 µM. The GI50 in [7], in test [8], in test [9] and in test [10] was more than 100 µM throughout. Further, the TGI in [1], in test [2], in [3], in test [4], in [5] and in [6] was more than 100 µM each time. Moreover, the TGI in test [7], in test [8], in test [9] and in test [10] was more than 100 µM throughout.
